Measurements from patent publication US12558345B2, “CHK1/2 inhibitors for use in the treatment of neuroblastomas and/or soft tissue sarcomas” (Eli Lilly and Company, priority 2015, dated 2026).
Where a name gives a salt, the structure may show the parent alone.

Assays:
[1] = system: CTG-0816 EWS patient-derived xenograft; assay: Xenograft Tumor Model CTG-0816; assay type: in vivo, mouse; settings: comparator day 28, p-value 0.069
Procedure: (§1) The efficacy of 5-(5-(2-(3-aminopropoxy)-6-methoxyphenyl)-1H-pyrazol-3-ylamino)pyrazine-2-carbonitrile methanesulfonic acid monohydrate is measurable in vivo in mouse models of neuroblastomas and human pediatric and adult sarcomas. 5-(5-(2-(3-Aminopropoxy)-6-methoxyphenyl)-1H-pyrazol-3-ylamino)pyrazine-2-carbonitrile methanesulfonic acid monohydrate (10 mg/kg) can be administered subcutaneously to nude mice bearing either cell-derived xenografts (CDX) or patient-derived xenografts (PDX) of human rhabdomyosarcoma, desmoplastic small round cell tumor (DSRCT), osteosarcoma, and Ewing's sarcoma using a 3 day on, 4 day off b.i.d. dosing schedule. Tumor volume and body weight can be measured two times per week. Tumor-specific parameters can be evaluated by immumohistochemistry. […]
(§2) For all “ST” models (encompassing RMS and LMS), patient-derived xenografts are established from viable human tumor tissue and are serially passaged in animals a limited number of times to maintain tumor heterogeneity. […] Tumor response is determined by tumor volume measurement performed twice per week during the course of treatment.

[2] = system: Osteosarcoma xenograft models; assay: Sarcoma xenograft models by tumor subtype: Osteosarcoma; assay type: in vivo, mouse; settings: age of patients 11-19 years
Procedure: as §1, §2

[3] = system: ST1547 LMS patient-derived xenograft; assay: Xenograft Tumor Model ST1547; assay type: in vivo, mouse; settings: comparator day 28, p-value <0.001
Procedure: (§3) For all “ST” models (encompassing RMS and LMS), patient-derived xenografts are established from viable human tumor tissue and are serially passaged in animals a limited number of times to maintain tumor heterogeneity. In subcutaneous models, athymic nude mice (Crl:NU(NCr)-Foxn1nu) or CB-17 SCID mice (CRL-CB17/Icr-Prkdcscid/IcrIcoCrl) are injected or implanted unilaterally into the flank with tumor fragments harvested from host animals, each implanted from a specific passage lot. For all studies, measure tumor growth and body weight twice per week beginning on the seventh day after implantation. When tumor size reaches 150-300 mm^3, randomize animals and group into groups of 4-7 animals. Prepare test compound in an appropriate vehicle (e.g. vehicle can be 20% Captisol® in sterile water) and administer subcutaneously for three consecutive days followed by a four day dosing holiday and repeat for a minimum of four weeks. Tumor response is determined by tumor volume measurement performed twice per week during the course of treatment.

adult sarcoma models = assay: Adult sarcoma models evaluated in vivo (panel); set-up: species or system mouse
Description: For all “CTG” models (encompassing human RMS, DSRCT, EWS, OS and LMS patient-derived xenograft models), female NCr nude spontaneous mutant mice (5-8 weeks old, Taconic) are implanted unilaterally in the flank region with tumor fragments harvested from donor animals, each implanted from a specific passage lot.
as §3

[4] = system: ST0001 LMS patient-derived xenograft; assay: Xenograft Tumor Model ST0001; assay type: in vivo, mouse; settings: comparator day 19, p-value 0.247
Procedure: as §3

[5] = system: G2M DNA damage checkpoint (pHH3) in HeLa cells; assay: Doxorubicin-Induced G2M Checkpoint Abrogation HeLa Cell-Based Acumen Assay; settings: Homo sapiens, 125 nM doxorubicin 24 hours, compound seven hours, Relative EC50
Procedure: An inhibitor of CHK1 will disable the G2M DNA damage checkpoint in p53-minus tumor cells treated with the topoisomerase II inhibitor, doxorubicin. A measurement of G2M checkpoint abrogation is the phosphorylation of histone H3 on serine 10 that occurs after cells traverse the G2M checkpoint and enter mitosis. The following high content imaging assay can be used to measure the phosphorylation of histone H3 in cells. HeLa cells (purchased from ATCC) are cultured in MEM Media (Gibco™) supplemented with 10% (v/v) FBS and plated at 2000 cells per well in poly D-lysine coated clear bottom black plates (BD Biocoat Cat #3504640), 100 μL volume per well. Plates are then incubated in a cell culture incubator for 18-24 hours (37° C., 5% CO2 and 95% relative humidity). […] Plates are scanned with ACUMEN EXPLORER™ Laser-scanning fluorescence microplate cytometers using 488 nm excitation (TTP LABTECH LTC) to measure pHH3 and DNA content including 2 N, and 4 N. The pHH3 positive cells are identified by mean intensity at 519 nm from Alexa 488. […] The final readout for each population is determined by normalizing to the % of total cells producing a final assay output of % pHH3, %2 N and %4 N. 100% activity is then determined by treating cells with the maximum concentration of an inhibitor control compound at 100 nM to determine the final % activity of each compound. […]

| Structure (SMILES) | % T/C [1] [%] | Result of Treatment: Stable Disease (models) [2] | % T/C [3] [%] | adult sarcoma models sensitive to single agent treatment (models) (adult sarcoma models) | adult sarcoma models sensitive to single agent treatment (percent) (adult sarcoma models) [%] | % T/C [4] [%] | EC50 [5] [nM] |
| --- | --- | --- | --- | --- | --- | --- | --- |
| COc1cccc(OCCCN)c1-c1cc(Nc2cnc(C#N)cn2)n[nH]1 [Example 5, 5-(5-(2-(3-Aminopropoxy)-6-methoxyphenyl)-1H-pyrazol-3-ylamino)pyrazine-2-carbonitrile methanesulfonic acid monohydrate] | 44 | 1/4 Stable Disease | 5 | 10/12 | 83 | 292 |  |
| COc1cccc(OCCCN)c1-c1cc(Nc2cnc(C#N)cn2)n[nH]1 [Example 2, 5-(5-(2-(3-Aminopropoxy)-6-methoxyphenyl)-1H-pyrazol-3-ylamino)pyrazine-2-carbonitrile dihydrogen chloride salt] |  |  |  |  |  |  | 10.5 |
